Like-named read-outs stand apart in the source and are kept apart here. Marks after values point to notes of the source that are not given here.
Target: T1, F508delCFTR (Homo sapiens, UniProt P13569, DEL508-508)
T1 construct: expressed in transfected cells; host or cells: CFBE41o- human lung derived epithelial cells (CFBE41o-F508delCFTR-HRP), doxycycline-inducible
Test: Cell Surface Expression-Horse Radish Peroxidase (CSE-HRP) Assay;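 as to EC50 (with co-corrector): co-corrector chromenyl benzoic acid corrector at 2 or 3 µM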;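 as to Maximum % activity (without co-corrector): % of on-plate positive control chromenyl benzoic acid corrector at 2 or 3 µM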
Format: cell-based
Conditions: for Maximum % activity (with co-corrector) / Emax: maximum at any tested concentration; for Emax: read-out: Maximum % activity (without co-corrector)
Procedure, shortened: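 Corrector compounds were given as 8-point 3-fold series from 20 or 30 μM, with or without a 2 μM co-corrector, for 18-24 h at 33 °C. Surface HRP was read by luminol luminescence as % of positive control; variable-Hill-slope sigmoidal fitting gave EC50 from triplicate plates.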

[1] = test compound with co-corrector
[2] = test compound with co-corrector, read-out: EC50 (with co-corrector)
[3] = test compound without co-corrector
[4] = test compound without co-corrector, read-out: EC50 (without co-corrector)

T1 sequence (P13569 with tags, fused parts or gaps DEL508-508): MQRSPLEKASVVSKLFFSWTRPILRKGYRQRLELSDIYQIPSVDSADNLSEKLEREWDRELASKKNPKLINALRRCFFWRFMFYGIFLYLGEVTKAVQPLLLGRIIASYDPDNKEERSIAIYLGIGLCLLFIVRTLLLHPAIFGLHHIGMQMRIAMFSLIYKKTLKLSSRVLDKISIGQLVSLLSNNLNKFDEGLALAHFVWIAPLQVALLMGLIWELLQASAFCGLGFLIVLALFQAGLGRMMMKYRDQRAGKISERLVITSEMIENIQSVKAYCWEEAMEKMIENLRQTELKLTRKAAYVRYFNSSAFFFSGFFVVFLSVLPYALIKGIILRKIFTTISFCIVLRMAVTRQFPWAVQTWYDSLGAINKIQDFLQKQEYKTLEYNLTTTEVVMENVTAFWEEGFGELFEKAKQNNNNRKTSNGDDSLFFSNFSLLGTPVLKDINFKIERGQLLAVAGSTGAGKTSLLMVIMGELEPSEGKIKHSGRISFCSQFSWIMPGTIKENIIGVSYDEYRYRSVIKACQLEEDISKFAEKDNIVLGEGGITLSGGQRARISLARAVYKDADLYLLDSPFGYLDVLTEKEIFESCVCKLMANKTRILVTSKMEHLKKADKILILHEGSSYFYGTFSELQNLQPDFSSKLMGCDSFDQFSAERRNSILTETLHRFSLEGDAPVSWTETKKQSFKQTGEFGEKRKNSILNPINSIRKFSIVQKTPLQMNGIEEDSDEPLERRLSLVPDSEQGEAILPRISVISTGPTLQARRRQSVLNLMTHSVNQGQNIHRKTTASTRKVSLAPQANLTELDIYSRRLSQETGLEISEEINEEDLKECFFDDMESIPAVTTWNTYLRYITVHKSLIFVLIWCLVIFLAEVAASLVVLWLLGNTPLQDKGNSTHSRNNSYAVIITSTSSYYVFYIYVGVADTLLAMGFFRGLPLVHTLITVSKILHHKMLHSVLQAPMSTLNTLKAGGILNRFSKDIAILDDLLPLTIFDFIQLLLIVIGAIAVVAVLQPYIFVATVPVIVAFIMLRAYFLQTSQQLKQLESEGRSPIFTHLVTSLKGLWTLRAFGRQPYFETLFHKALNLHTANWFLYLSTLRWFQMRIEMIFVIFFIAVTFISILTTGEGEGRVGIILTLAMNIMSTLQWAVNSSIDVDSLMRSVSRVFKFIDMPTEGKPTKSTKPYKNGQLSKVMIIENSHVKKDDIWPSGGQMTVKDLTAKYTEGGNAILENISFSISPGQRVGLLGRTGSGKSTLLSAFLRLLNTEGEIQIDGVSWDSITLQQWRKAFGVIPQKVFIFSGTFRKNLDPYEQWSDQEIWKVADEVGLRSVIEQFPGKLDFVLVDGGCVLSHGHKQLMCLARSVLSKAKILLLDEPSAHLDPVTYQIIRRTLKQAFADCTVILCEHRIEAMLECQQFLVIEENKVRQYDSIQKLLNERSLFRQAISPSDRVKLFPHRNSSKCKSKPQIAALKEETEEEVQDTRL

Maximum % activity (with co-corrector) [1] | EC50 [2] [µM] | Emax [3] [%] | EC50 [4] [µM] | EC50 (with co-corrector) [1] | EC50 (without co-corrector) [3] | SMILES
+++ (≥350) | 3 to 10 | > 150 | 3 to 10 | – | – | COCCOc1ncc(C)cc1C1(C(=O)NS(=O)(=O)c2cccc3[nH]ccc23)CC1 [GII-53, N-(1H-indolc-4-sulfonyl)-1-[2-(2-methoxyethoxy)-5-methylpyridin-3-yl]cyclopropane-1-carboxamide]
+++ (≥350) | 3 to 10 | > 150 | 3 to 10 | – | – | CCc1cnc(N2CCC(OC(C)C)CC2)c(C2(C(=O)NS(=O)(=O)c3cccc4ncccc34)CC2)c1 [GII-54, 1-(5-ethyl-2-{4-[(propan-2-yl)oxy]piperidin-1-yl}pyridin-3-yl)-N-(quinoline-5-sulfonyl)cyclopropane-1-carboxamide]
+++ (≥350) | 3 to 10 | > 150 | 3 to 10 | – | – | CCc1cnc(N2CCC(OC(C)C)CC2)c(C2(C(=O)NS(=O)(=O)c3cccc4nc(C)ccc34)CC2)c1 [GII-55, 1-(5-ethyl-2-{4-[(propan-2-yl)oxy]piperidin-1-yl}pyridin-3-yl)-N-(2-methylquinoline-5-sulfonyl)cyclopropane-1-carboxamide]
+++ (≥350) | 3 to 10 | > 150 | 3 to 10 | – | – | CCc1cnc(OCCOC)c(C2(C(=O)NS(=O)(=O)c3cccc4nc(C)ccc34)CC2)c1 [GII-56, 1-[5-ethyl-2-(2-methoxyethoxy)pyridin-3-yl]-N-(2-methylquinoline-5-sulfonyl)cyclopropane-1-carboxamide]
+++ (≥350) | 3 to 10 | > 150 | 3 to 10 | – | – | CCc1cnc(N2CCC(OC)CC2)c(C2(C(=O)NS(=O)(=O)c3cccc4ncccc34)CC2)c1 [GII-57, 1-[5-ethyl-2-(4-methoxypiperidin-1-yl)pyridin-3-yl]-N-(quinoline-5-sulfonyl)cyclopropane-1-carboxamide]
+++ (≥350) | 3 to 10 | > 150 | 3 to 10 | – | – | CCc1cnc(N2CCC(OC)CC2)c(C2(C(=O)NS(=O)(=O)c3cccc4[nH]ccc34)CC2)c1 [GII-58, 1-[5-ethyl-2-(4-methoxypiperidin-1-yl)pyridin-3-yl]-N-(1H-indole-4-sulfonyl)cyclopropane-1-carboxamide]
+++ (≥350) | 3 to 10 | > 150 | 3 to 10 | – | – | CCc1cnc(N2CCC(COC)CC2)c(C2(C(=O)NS(=O)(=O)c3cccc4ncccc34)CC2)c1 [GII-59, 1-{5-ethyl-2-[4-(methoxymethyl)piperidin-1-yl]pyridin-3-yl}-N-(quinoline-5-sulfonyl)cyclopropane-1-carboxamide]
++ (≥150 and <350) | – | < 50 | – | ++^a | ++^a | O=C(NS(=O)(=O)c1cccc2ncccc12)C1(c2ncc(C(F)(F)F)cc2Cl)CC1 [GIII-1]
+ (<150) | > 10 | < 50 | > 10 | – | – | O=C(NS(=O)(=O)c1cccc2ncccc12)C1(c2cc(Cl)cnc2C(F)(F)F)CC1 [GIII-2]
+++ (≥350) | 3 to 10 | > 150 | 3 to 10 | – | – | COc1cc(OC(C)C)c(C2(C(=O)NS(=O)(=O)c3cccc4[nH]ccc34)CC2)cn1 [GIII-3]
++ (≥150 and <350) | – | < 50 | – | ++^a | ++^a | CC(C)COc1cnc(Cl)c(C2(C(=O)NS(=O)(=O)c3cccc4ncccc34)CC2)c1 [GIII-5]
+ (<150) | > 10 | < 50 | > 10 | – | – | CCc1ccncc1C1(C(=O)NS(=O)(=O)c2cccc3ncccc23)CC1 [GIII-6]
++ (≥150 and <350) | – | < 50 | – | ++^a | ++^a | Cc1cnc(F)cc1C1(C(=O)NS(=O)(=O)c2cccc3c2CCCN3)CC1 [GIII-7]
++ (≥150 and <350) | – | 50 to 150 | – | ++^a | ++^a | COc1ccc(C2(C(=O)NS(=O)(=O)c3cccc4ncccc34)CC2)c(C)n1 [GIII-8]
++ (≥150 and <350) | – | 50 to 150 | – | ++^a | ++^a | O=C(NS(=O)(=O)c1cccc2ncccc12)C1(c2cc(C3CC3)cnc2C(F)(F)F)CC1 [GIII-10]
++ (≥150 and <350) | – | 50 to 150 | – | ++^a | ++^a | COCCOc1cnc(OC)cc1C1(C(=O)NS(=O)(=O)c2cccc3ncccc23)CC1 [GIII-11]
+ (<150) | > 10 | < 50 | > 10 | – | – | COc1ncc(C2(C(=O)NS(=O)(=O)c3cccc4c3CCCN4)CC2)c(OC)n1 [GIII-12]
++ (≥150 and <350) | – | < 50 | > 10 | ++^a | – | CC(C)Oc1cnc(Cl)c(C2(C(=O)NS(=O)(=O)c3cccc4ncccc34)CC2)c1 [GIII-13]

Maximum % activity (with co-corrector) [1] | EC50 [2] [µM] | Emax [3] [%] | EC50 [4] [µM] | EC50 (with co-corrector) [1] | EC50 (without co-corrector) [3] | SMILES
+++ (≥350) | 3 to 10 | > 150 | 3 to 10 | – | – | COc1cc(C2(C(=O)NS(=O)(=O)c3cccc4nc(C)ccc34)CC2)c(OCC(F)F)cn1 [GIII-14]
++ (≥150 and <350) | – | < 50 | – | ++^a | ++^a | COc1ccc(C2(C(=O)NS(=O)(=O)c3cccc4c3CCCN4)CC2)c(C)n1 [GIII-15]
+ (<150) | > 10 | < 50 | > 10 | – | – | Cc1cnc(F)cc1C1(C(=O)NS(=O)(=O)c2cccc3ncccc23)CC1 [GIII-16]
++ (≥150 and <350) | – | 50 to 150 | – | ++^a | ++^a | COc1cc(C)c(C2(C(=O)NS(=O)(=O)c3cccc4c3CCCN4)CC2)cn1 [GIII-17]
++ (≥150 and <350) | – | 50 to 150 | – | ++^a | ++^a | COc1cc(C2(C(=O)NS(=O)(=O)c3cccc4ncccc34)CC2)c(OCC(F)F)cn1 [GIII-18]
++ (≥150 and <350) | – | 50 to 150 | – | ++^a | ++^a | COc1cc(C2(C(=O)NS(=O)(=O)c3cccc4ncccc34)CC2)c(OC(F)F)cn1 [GIII-19]
++ (≥150 and <350) | – | 50 to 150 | – | ++^a | ++^a | Cc1ccc2c(S(=O)(=O)NC(=O)C3(c4cc(C5CC5)cnc4N4CCOCC4)CC3)cccc2n1 [GIII-20]
++ (≥150 and <350) | – | 50 to 150 | – | ++^a | ++^a | O=C(NS(=O)(=O)c1cccc2ccccc12)C1(c2ccc(C(F)(F)F)nc2Cl)CC1 [GIII-21]
++ (≥150 and <350) | – | 50 to 150 | – | ++^a | ++^a | COc1cc(C2(C(=O)NS(=O)(=O)c3cccc4nc(C)ccc34)CC2)c(OC(F)F)cn1 [GIII-22]
++ (≥150 and <350) | > 10 | 50 to 150 | > 10 | – | – | CCc1cnc(N2CCOCC2)c(C2(C(=O)NS(=O)(=O)c3cccc4ncccc34)CC2)c1 [GIII-23]
+ (<150) | > 10 | < 50 | > 10 | – | – | COc1ncc(C2(C(=O)NS(=O)(=O)c3cccc4ncccc34)CC2)c(OC)n1 [GIII-24]
++ (≥150 and <350) | – | 50 to 150 | – | ++^a | ++^a | O=C(NS(=O)(=O)c1cccc2ncccc12)C1(c2cc(C3CC3)cnc2N2CCOCC2)CC1 [GIII-25]
++ (≥150 and <350) | > 10 | < 50 | > 10 | – | – | Cc1cnc(N2CCN(C)CC2)c(C2(C(=O)NS(=O)(=O)c3cccc4ncccc34)CC2)c1 [GIII-26]
++ (≥150 and <350) | > 10 | < 50 | > 10 | – | – | O=C(NS(=O)(=O)c1cccc2c1CCCN2)C1(c2ccc(C(F)(F)F)nc2Cl)CC1 [GIII-28]
+ (<150) | > 10 | < 50 | > 10 | – | – | O=C(NS(=O)(=O)c1cccc2ncccc12)C1(c2ccc(C(F)(F)F)nc2Cl)CC1 [GIII-29]
+ (<150) | – | < 50 | > 10 | ++^a | – | COc1nc(N)ccc1C1(C(=O)NS(=O)(=O)c2cccc3ncccc23)CC1 [GIII-30]
+ (<150) | > 10 | < 50 | > 10 | – | – | CN1CCN(c2ncc(C3CCC3)cc2C2(C(=O)NS(=O)(=O)c3cccc4ncccc34)CC2)CC1 [GIII-31]
+ (<150) | > 10 | < 50 | > 10 | – | – | Cc1ccc2c(S(=O)(=O)NC(=O)C3(c4cc(C5CCC5)cnc4N4CCN(C)CC4)CC3)cccc2n1 [GIII-32]

— patent publication US10829473B2, “Modulators of the cystic fibrosis transmembrane conductance regulator protein and methods of use” (AbbVie Overseas S.Á.R.L., priority 2017, dated 2020)
